Results as given in publication PMC11345839, “Synthesis and Characterization of Folic Acid-Conjugated Terbium Complexes as Luminescent Probes for Targeting Folate Receptor-Expressing Cells” (Journal of Medicinal Chemistry, 2024).

Key:
[1] = UV-vis absorption (molar extinction coefficient); type: physicochemical; settings: H2O, λmax = 281 nm, mixture of regioisomers
Source text: The absorption spectrum of folic acid is characterized by two absorption bands in the region of 250–300 and 300–400 nm, which correspond to the π → π* transition for the pterin and the n → π* transition for the p-amino benzoyl acid moieties respectively.[46] […] Differences are observed for TbL,^4 which is red-shifted and broadened due to the overlap with the acetophenone moiety; similar absorbance spectra of acetophenone-folate complexes have been reported by Quici et al.[16]
UV–vis spectra were recorded on a Cary60 UV–vis spectrophotometer fitted with a xenon source lamp or on a Jasco V-770 UV–visible/NIR spectrophotometer.

FR = settings: cited from earlier work
FRα = target: T1, FRα (Homo sapiens, UniProt P15328); test: Folate-FITC binding competition assay (flow cytometry), FRα on KB cells; settings: competition with 10 nM Folate-FITC
T1 construct: Human KB nasopharyngeal epidermoid carcinoma cells (expressing FRα); endogenous in cells; host or cells: KB nasopharyngeal epidermoid carcinoma cells
T1 sequence (P15328 25-257): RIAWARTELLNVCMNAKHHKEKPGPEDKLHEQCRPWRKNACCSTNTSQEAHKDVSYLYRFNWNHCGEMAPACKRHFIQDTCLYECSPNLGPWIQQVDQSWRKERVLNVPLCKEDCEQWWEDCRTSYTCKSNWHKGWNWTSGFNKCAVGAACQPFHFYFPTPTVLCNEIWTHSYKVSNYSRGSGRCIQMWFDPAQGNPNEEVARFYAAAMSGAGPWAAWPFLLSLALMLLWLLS
Description: (§1) To assess the binding affinity of the terbium-folate conjugates, a flow cytometry binding competition assay was carried out with folate-FITC and increasing concentrations of terbium-folate conjugates with FRα and FRβ expressing cells. The affinity of FRα and FRβ for the terbium-folate conjugates is expressed relative to folic acid, which is given the value of 1.
(§2) Human KB nasopharyngeal epidermoid carcinoma cells (expressing FRα) and FRβ-transfected Chinese Hamster Ovary cells were cultured in Folate-free RPMI medium (Thermo Fisher Scientific) supplemented with 20% Newborn Calf Serum, 1% antibiotics (penicillin and streptomycin) and 25 mM HEPES, in a humidified 37 °C incubator with 5% CO2 as described by Van der Heijden et al.[4] The culture medium was refreshed every 3 days. Stock solutions (1 mM) of Tb-folate conjugates were made by dissolving in 50 mM NaHCO3 and stored at −20 °C until use. […] Flow cytometry data was analyzed in FlowJo v10.8 Software (BD Life Sciences). […] Data from 6–9 replicative experiments were analyzed. […]
(§3) Considering FRα and FRβ share the same affinity for folic acid and Folate-FITC, relative affinities for Tb-folate compounds were expressed relative to folic acid.[59],[60] The relative affinity was calculated using [drawing 1] […]

FRβ = target: T2, FRβ (Homo sapiens, UniProt P14207); test: Folate-FITC binding competition assay (flow cytometry), FRβ on CHO/FRβ transfected cells; settings: competition with 1 nM Folate-FITC
T2 construct: expressed in transfected cells; host or cells: Chinese Hamster Ovary (CHO) cells
T2 sequence (P14207 17-255): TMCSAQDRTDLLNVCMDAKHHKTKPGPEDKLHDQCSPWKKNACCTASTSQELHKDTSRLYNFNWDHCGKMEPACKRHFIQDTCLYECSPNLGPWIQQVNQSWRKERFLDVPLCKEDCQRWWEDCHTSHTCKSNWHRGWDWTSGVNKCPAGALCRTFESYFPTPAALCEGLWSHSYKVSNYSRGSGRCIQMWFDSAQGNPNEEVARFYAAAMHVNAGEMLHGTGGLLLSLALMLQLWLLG
Description: as §1, §2, §3

[2] = design: method as in PMID 30296376; settings: λex = 776 nm; cited from earlier work
[3] = design: method as in PMID 30296376; settings: λex = 776 nm, λem = 793 nm; cited from earlier work

## Folate-PEG6-DOTA [L^1αγ]
[1]
  ε (molar extinction coefficient) of free ligand: 20013 M^–1 cm^–1

## CN1c2c(nc(N)[nH]c2=O)NCC1CNc1ccc(C(=O)N[C@@H](CCC(=O)O)C(=O)O)cc1 (stereo partly drawn) [5-methyltetrahydrofolate]
FR
  FR affinity, fold lower than folic acid: approximately 10 fold

## Nc1nc(=O)c2nc(CNc3ccc(C(=O)N[C@@H](CCC(=O)O)C(=O)O)cc3)cnc2[nH]1 [ChEBI_27470, folic acid]
FRα
  relative binding affinity to FRα (folic acid = 1): 1
FRβ
  relative binding affinity to FRβ (folic acid = 1): 1

## CC1(C)C(/C=C/C2=C(Oc3ccc(C[C@H](NC(=O)c4ccc(NCc5cnc6nc(N)[nH]c(=O)c6n5)cc4)C(=O)[O-])cc3)C(=C/C=C3\N(CCCCS(=O)(=O)[O-])c4ccc(S(=O)(=O)[O-])cc4C3(C)C)/CCC2)=[N+](CCCCS(=O)(=O)[O-])c2ccc(S(=O)(=O)[O-])cc21.[H+].[H+].[H+].[H+] [OTL38]
[2]
  ε (molar extinction coefficient): 272 000 M^–1 cm^–1
[3]
  Φ (quantum yield): 15.1%
